In PMC10142505, “Synthesis, Evaluation of Enzyme Inhibition and Redox Properties of Potential Dual COX-2 and 5-LOX Inhibitors” (Pharmaceuticals, 2023):
Marks after values point to notes of the source that are not given here.

System: human serum pool
Assay: Redox activity (oxy score from TOS, PAB, TAS, SHG) in vitro in human serum pool
Conditions: 37 °C, median (interquartile range); for Oxy score (OS), 2 h incubation, TBH added / Oxy score (OS), 24 h incubation, TBH added: with TBH added; for Oxy score (OS), 2 h incubation / Oxy score (OS), 24 h incubation: without TBH; for Oxy score (OS), 2 h incubation: average of five concentrations
Method: The remains of the serum samples were taken from healthy subjects after biochemical analysis; these subjects participated in regular medical examinations at the Military Medical Academy in Belgrade and consented to the formation of a serum pool. Neither the patients’ data nor their identities were used. Serum pool samples were prepared and aliquoted (450 µL portions) according to the routine procedure for in-house controle samples and preserved at the -80 °C until analysis. Five serial dilutions of the tested compounds (concentrations: 1000 µM, 500 µM, 250 µM, 125 µM and 62.5 µM) were added alone (50 µL) or in combination (25 µL) with oxidant TBH (25 µM) into 450 µL of serum. The compounds were dissolved in dimethyl sulfoxide (DMSO) for stock solution (1000 µM), while a PBS buffer (phosphate buffered saline) pH = 7.4 was used for serial dilutions (500 µM, 250 µM, 125 µM and 62.5 µM). Deionized water was used as a blank. DMSO and buffer pH = 7.4 were used as a control, while trolox solution (2 mmol/L) was used as a standard. All samples were incubated in duplicate for 2 h and 24 h at 37 °C.
Oxidative stress parameters (total antioxidative status (TAS), total oxidative status (TOS), total concentration of sulfhydryl group (SHG) and prooxidative–antioxidative balance (PAB)) were determined in order to calculate prooxidative score, antioxidative score and oxy score (OS). These parameters were determined in serum.
Total antioxidative status (TAS) was measured using Erel’s method, which was further optimized by Kotur-Stevuljevic et al. in 2015 [34]. ABTS (2,2-azino-bis(3-ethyl-benzthiazoline-6-sulfonic acid) is oxidized to a green-colored ABTS^+ cation by hydrogen peroxide in the acetate buffer (pH = 3.6). This stable cation is chromogen, and the presence of antioxidants in the samples causes its discoloration proportional to their concentrations. The absorbance was measured using a SPECTROstar Nano Microplate Reader (BMG Labtech, Ortenberg, Germany). The reaction was calibrated with Trolox and the TAS values are expressed as mmol trolox equivalent/L.
Total oxidative status (TOS) was measured using Erel’s method. Here, a ferrous ion-o-dianisidine complex is oxidized to ferric ion by the oxidants present in the sample. The ferric ion forms a colored complex with xylenol orange in an acidic environment and in the presence of glycerol. The intensity of the color of the formed complex is proportional to the total contents of oxidants in the sample. The absorbance was measured at 560 nm using a SPECTROstar Nano Microplate Reader (BMG Labtech, Ortenberg, Germany). The reaction was calibrated with hydrogen peroxide and the TOS values are expressed as µmol H2O2 equivalent/L.
Prooxidant–antioxidant balance (PAB) was measured according to procedures in the literature. Here, hydrogen peroxide is determined in the presence of antioxidants in the sample. Both of them (hydrogen peroxide and antioxidants (including uric acid)) react with chromogen TMB (3,3′,5,5′-tetramethylbenzidine) simultaneously. The hydrogen peroxide and chromogen reaction is enzymatically catalyzed with peroxidase, while the antioxidants–chromogen reaction is non-enzymatic. The intense blue color, produced as a result of the reaction between hydrogen peroxide and TMB, is decolorized by the reaction of the antioxidant with the TMB. The resulting color (result of two competitive reactions) is proportional to the ratio of antioxidants to prooxidants. The absorbance was measured at 450 nm. Different ratios of hydrogen peroxide and uric acid solutions were used to make a standard curve. The PAB results are expressed in hydrogen peroxide concentrations.
Total Sulfydryl Groups Content (SHG) was measured using a modified version of Ellman’s method. This method is based on the reaction between DTNB ([…]) and aliphatic thiol compounds in an alkaline environment (pH = 9.0). […]

| SMILES | Oxy score (OS), 2 h incubation, TBH added | Oxy score (OS), 2 h incubation | Oxy score (OS), 24 h incubation, TBH added | Oxy score (OS), 24 h incubation |
| --- | --- | --- | --- | --- |
| Cc1cc(C(C)(C)C)c(O)c(C(C)(C)C)c1 [BHT, Butylated hydroxytoluene, reference compound] | 7.98 (6.77–8.81) | 3.08 (2.73–3.26) | 4.51 (4.38–7.22) | 2.62 (2.14–3.22) |
| Cc1ccc(-c2cc(C(F)(F)F)nn2-c2ccc(S(N)(=O)=O)cc2)cc1 [Celecoxib, reference compound] | 7.94 (6.97–8.45) | 5.66 (2.92–12.90) | 4.95 (4.57–10.25) | 2.77 (2.46–3.27) |
| NC(N)=O [Urea, urea, reference compound] | 8.11 (7.61–8.79) | 3.48 (3.44–4.08) | 5.19 (4.96–14.00) | 4.60 (3.62–6.02) |
| CC(C)(C)OO [TBH, tert-butyl hydroperoxide, reference compound] | – | 6.40 (4.66–11.59) | – | 6.43 (4.73–12.00) |
| CC(c1cc2ccccc2s1)N(O)C(N)=O (centres unmarked) [Zileuton, reference compound] | 6.87 (6.52–7.18) | 2.60 (−7.86–7.54) | 8.80 (5.71–13.66) | 3.61 (2.47–4.93) |
| Cc1c(C)c2c(c(C)c1O)CCC(C)(C(=O)O)O2 (centres unmarked) [Trolox, reference compound] | – | 0.54 (−0.66–2.43) | – | 0.07 (−0.59–0.59) * |
